From patent US7547444B1, “Methods for controlling fungi and bacteria” (priority 2003, dated 2009)

How the values were obtained:
[1] = system: Streptococcus pyogenes; settings: in vitro, 24 hours at 35° C.
[2] = system: Aspergillus flavus; settings: in vitro, 24 hours at 35 degrees C.
[3] = system: Streptococcus algalactia; settings: in vitro, 24 hours at 35° C.
[4] = system: Streptococcus faecalis; settings: in vitro, 24 hours at 35° C.
[5] = system: Rhizopus arrihizus
[6] = system: Candida tropicalis; settings: in vitro, 24 hours at 35 degrees C.
[7] = system: Trichophyton mentagrophyt
[8] = system: E. coli; settings: in vitro, 24 hours at 35° C.
[9] = system: Aspergillus fumigatus; settings: in vitro, 24 hours at 35 degrees C.
[10] = system: Candida albicans; settings: in vitro, 24 hours at 35 degrees C.
[11] = system: Staphylococcus aureus; settings: in vitro, 24 hours at 35° C.
[12] = system: Trichophyton eguinium
[13] = system: Epidermophyton floccsum
[14] = system: Bordella bronchiseptica; settings: in vitro, 24 hours at 35° C.
[15] = system: Saccharomyces cervisciae
[16] = system: Fusarium solani; settings: in vitro, 24 hours at 35 degrees C.
[17] = system: Microsporidium gypseum
[18] = system: Cryptococcus neoformans; settings: in vitro, 24 hours at 35 degrees C.
[19] = system: Pseudomonas aerugenosa; settings: in vitro, 24 hours at 35° C.
[20] = system: Pasturella multocida; settings: in vitro, 24 hours at 35° C.
[21] = system: Microsporidium canis
[22] = system: Trichophyton rubrum
[23] = system: Vibrio cholerae; settings: in vitro, 24 hours at 35° C.
[24] = system: Cochliobolus mijabeanus; settings: Cochliobolus mijabeanus (Corn); 18° C. for 7 days
Experimental: (§1) A stock solution of the compound was prepared in DMSO at a concentration of 10,000 ppm a.i. Further dilutions were prepared with water. The test was conducted at the following concentrations: 125, 31, 8, 21, 0.5 and 0.125 ppm a.i. Spore suspensions of the fungi were prepared. The test was conducted in microtiter plates and for each fungus and each concentration, 3 wells were prepared. Incubation of the inoculated plates was carried out at 18° C. for 7 days. After this time, the optical density of the mycelium developed in each well was measured at 405 nm.

[25] = system: roundworms, threadworms, and whipworms; settings: reported; cited from earlier work
[26] = system: Colletotrichum lagenarium; test: Plant relevant mold panel, microtiter plate growth inhibition (OD 405 nm), IC 90; format: cell-based; settings: Colletotrichum lagenarium (Mellons); 18° C. for 7 days
[27] = system: Septonia tritici; test: as above; format: cell-based; settings: Septonia tritici (Wheat Leaf); 18° C. for 7 days
[28] = system: Alternaria solani; settings: Alternaria solani (Potato); 18° C. for 7 days
Experimental: as §1

[29] = system: Pyricularia oryzae; settings: Pyricularia oryzae (Rice); 18° C. for 7 days
[30] = system: Rhizoctonia solani; test: Plant relevant mold panel, microtiter plate growth inhibition (OD 405 nm), IC 90; format: cell-based; settings: Rhizoctonia solani (Rice Sheath); 18° C. for 7 days
[31] = system: Fusarium culmorum; settings: Fusarium culmorum (Wheat Head); 18° C. for 7 days
Experimental: as §1

[32] = system: Phytophthora infestans; settings: Phytophthora infestans (Tomato); 18° C. for 7 days
[33] = system: Pyrenophora teres; test: Plant relevant mold panel, microtiter plate growth inhibition (OD 405 nm), IC 90; format: cell-based; settings: Pyrenophora teres (Barley); 18° C. for 7 days
[34] = system: Botrytis cinerea; test: as above; format: cell-based; settings: Botrytis cinerea (Vegetable); 18° C. for 7 days

## Stilbazium Chloride [formula I]
[1]
  MIC: 1.0 µg/mL
[2]
  MIC: 6.25 µg/mL
[3]
  MIC: 1.0 µg/mL
[4]
  MIC: 1.0 µg/mL
[5]
  MIC: 6.25 µg/mL
[6]
  MIC: <0.4 µg/mL
[7]
  MIC: 1.6 µg/mL
[8]
  MIC: >100 µg/mL
[9]
  MIC: <0.006 µg/mL
[10]
  MIC: <0.006 µg/mL
[11]
  MIC: 0.3 µg/mL
[12]
  MIC: 1.6 µg/mL
[13]
  MIC: 1.6 µg/mL
[14]
  MIC: 1.0 µg/mL
[15]
  MIC: <0.4 µg/mL
[16]
  MIC: <0.4 µg/mL
[17]
  MIC: 1.6 µg/mL
[18]
  MIC: <0.4 µg/mL
[19]
  MIC: >100 µg/mL
[20]
  MIC: 3.0 µg/mL
[21]
  MIC: 1.6 µg/mL
[22]
  MIC: 1.6 µg/mL
[23]
  MIC: 10.0 µg/mL

## CC[n+]1c(/C=C/c2ccc(N3CCCC3)cc2)cccc1/C=C/c1ccc(N2CCCC2)cc1.[I-] [Stilbazium iodide]
[24]
  IC90: >125 ppm a.i.
[25]
  anthelmintic effectiveness: effective
[26]
  IC90: 31 ppm a.i.
[27]
  IC90: 2 ppm a.i.
[28]
  IC90: >125 ppm a.i.
[29]
  IC90: 8 ppm a.i.
[30]
  IC90: 2 ppm a.i.
[31]
  IC90: >125 ppm a.i.
[32]
  IC90: 2 ppm a.i.
[33]
  IC90: 31 ppm a.i.
[34]
  IC90: 0.5 ppm a.i.
